Experimental data as given in patent US10723699B2 (Hyundai Pharm Co., Ltd., priority 2015, dated 2020).
“Also recorded” adds a separate entry of the source. Like-named read-outs stand apart in the source and are kept apart here.

How the values were obtained:
CYP2D6 = target: T1, CYP2D6 (Homo sapiens, UniProt P10635); test: CYP inhibition assay (Invitrogen P2862 kit); assay type: in vitro ADME; conditions: for inhibition at 1 h, 10 µM: human, CYP2D6 P450 BACULOSOMES (Invitrogen P2862 kit), probe Vivid CYP450 substrate, read-out: CYP inhibition (% at 10 μM) 2D6
T1 construct: purchased Invitrogen P2862
Excerpt: (§1) CYP enzymes play a major role in the metabolism of drugs. Depending on the inhibition activity of the CYP enzymes, the dose of the drugs and toxicity due to the co-administration of other drugs can be predicted. Therefore, we have measured the inhibitory activity for CYP3A4, CYP2C9, CYP1A2, CYP2D6 and CYP2C19 enzymes present in the body using the compounds of the present invention. Invitrogen P2862 kit was used for CYP2D6 inhibition assay, and BD GENTEST (459100, 459300, 459400, 459500) kits were used for CYP1A2, CYP2C9, CYP2C19 and CYP3A4 inhibition assay. In case of Invitrogen kit, the test materials were diluted in distilled water into 2.5× of the final test concentration.
P450 BACULOSOMES® reagent and regeneration device (100×) provided by the Invitrogen kit were diluted in the Vivid® reaction buffer (2×) into the appropriate concentration for the type of CYP450. After mixing 80 μl of the 2.5× test material and 100 μl of the mixture of the diluted P450 BACULOSOMES® reagent in U-bottom 96-well plate, the resulting mixture was pre-incubated for 20 minutes. Vivid® CYP450 substrate and NADP+ (100×) were diluted in the Vivid® CYP450 reaction buffer (2×) into the appropriate concentration for the types of CYP450 and the substrates. After completion of the pre-incubation, 20/l of the substrate-NADP (nicotinamide adenine dinucleotide phosphate) mixture was added, and then incubated for 1 hour. After completion of the reaction, the reactants were transferred to the white plates, and fluorescence values were measured using a micro-plate reader (Excitation and absorption wavelengths of CYP2D6 were 400 nm and 502 nm, respectively).
(§2) The measured values were converted into the inhibition percent of the test materials as compared to the value of the untreated control, and the results were summarized in Table 5.

CYP2C9 = target: T2, CYP2C9 (Homo sapiens, UniProt P11712); test: CYP inhibition assay (BD GENTEST kit); assay type: in vitro ADME; conditions: for inhibition at 1.5 h, 10 µM: human, CYP2C9 enzyme/substrate mixture of BD GENTEST kit, pH 7.4, 10 μM, read-out: CYP inhibition (% at 10 μM) 2C9
T2 construct: purchased BD GENTEST 459300
Excerpt: as §1
(§3) In case of BD GENTEST kit, the test materials were diluted in acetonitrile into 50× of the final test concentration. NADPH-cofactor mixture containing cofactor, G6PDH and control protein was prepared in distilled water as per manufacturer's instruction. 4 μl of 50× test materials and 96 μl of NADPH-cofactor mixture were mixed in U-bottom 96-well plate, and the resulting mixture were pre-incubated at 37° C. for 10 minutes. Predetermined concentrations of enzyme/substrate mixture were prepared in distilled water using buffer (0.5M potassium phosphate, pH 7.4) and each of CYP450 enzyme/substrate mixture provided in the kit for the types of CYP450. To the pre-incubated plate, 100 μl of enzyme/substrate mixture was added, and then incubated at 37° C. for 15 minutes (CYP1A2), 30 minutes (CYP3A4 and CYP2C19) or 1.5 hours (CYP2C9). After completion of the reaction, the reactants were transferred to the white plates, and fluorescent values were measured using a micro-plate reader (Excitation and absorption wavelengths of CYP1A2 and CYP2C19 were 410 nm and 460 nm, respectively; and excitation and absorption wavelengths of CYP2C9 and CYP3A4 were 409 nm and 530 nm, respectively).
as §2

CYP3A4 = target: T3, CYP3A4 (Homo sapiens, UniProt P08684); test: CYP inhibition assay (BD GENTEST kit); assay type: in vitro ADME; conditions: human, CYP3A4 enzyme/substrate mixture of BD GENTEST kit, pH 7.4, 10 μM; read-out: CYP inhibition (% at 10 μM) 3A4
T3 construct: purchased BD GENTEST 459500
Excerpt: as §1, §3, §2

CYP1A2 = target: T4, CYP1A2 (Homo sapiens, UniProt P05177); test: CYP inhibition assay (BD GENTEST kit); assay type: in vitro ADME; conditions: for inhibition at 15 min, 10 µM: human, CYP1A2 enzyme/substrate mixture of BD GENTEST kit, pH 7.4, 10 μM, read-out: CYP inhibition (% at 10 μM) 1A2
T4 construct: purchased BD GENTEST 459100
T4 sequence (P05177 1-516): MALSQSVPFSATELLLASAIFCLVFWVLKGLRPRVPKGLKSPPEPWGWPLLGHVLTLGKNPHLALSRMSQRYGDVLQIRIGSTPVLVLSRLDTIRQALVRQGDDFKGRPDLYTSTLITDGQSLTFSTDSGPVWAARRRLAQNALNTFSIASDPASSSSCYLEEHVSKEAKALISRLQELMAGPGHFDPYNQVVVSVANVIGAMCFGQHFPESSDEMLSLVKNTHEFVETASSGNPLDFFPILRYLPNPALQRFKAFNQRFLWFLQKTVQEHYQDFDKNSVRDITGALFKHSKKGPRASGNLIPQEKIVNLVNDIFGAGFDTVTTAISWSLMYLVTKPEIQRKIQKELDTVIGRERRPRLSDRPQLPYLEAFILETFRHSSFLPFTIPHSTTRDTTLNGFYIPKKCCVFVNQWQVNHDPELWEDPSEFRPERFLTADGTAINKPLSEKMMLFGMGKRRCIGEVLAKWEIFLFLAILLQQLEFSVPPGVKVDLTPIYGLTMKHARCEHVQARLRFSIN
Excerpt: as §1, §3, §2

CYP2C19 = target: T5, CYP2C19 (Homo sapiens, UniProt P33261); test: CYP inhibition assay (BD GENTEST kit); assay type: in vitro ADME; conditions: human, CYP2C19 enzyme/substrate mixture of BD GENTEST kit, pH 7.4, 10 μM; read-out: CYP inhibition (% at 10 μM) 2C19
T5 construct: purchased BD GENTEST 459400
Excerpt: as §1, §3, §2

[1] = tested on: diet-induced obesity (DIO) rat model; test: Changes in weights in diet-induced obesity (DIO) rat model, 4-week administration; assay type: in vivo, Sprague Dawley (SD) rats; conditions: 300 mg/kg oral, 4 weeks
Method: To simultaneously evaluate both the weight-loss and hypoglycemic effects of the cyclohexene derivative according to the present invention, experiments were carried out, as follows.
(§4) Specifically, male Sprague Dawley (SD) rats (approximately 4 weeks old) in a diet-induced obesity model were fed with a high-fat diet (Lab. Diet Co.) for approximately 10 weeks to induce high-fat diet-induced obesity (DIO). The rats undergoing the high-fat diet were randomly selected, and divided into groups (n=8) for respective administrations. The compounds of Comparative Examples 3 and 4 and Examples 48 and 119 were administered to the divided DIO rats each group for 4 weeks.
(§5) The weights of the DIO rats were measured twice a week during a period of administration of 4 weeks to record a change in the weights. At the end of the 4-week period of administration, a hypoglycemic effect was evaluated using an oral glucose tolerance test (OGTT), as follows.

[2] = tested on: diet-induced obesity (DIO) rat model; test: OGTT at the end of the 4-week administration in DIO rat model; assay type: in vivo, Sprague Dawley (SD) rats; conditions: 300 mg/kg oral; glucose 2 g/kg 30 minutes later; after 4-week administration
Method: as §4, §5
Specifically, each of the compounds of Comparative Example 3 (300 mg/kg) and Examples 48 and 119 (10, 20, 50 mg/kg) was administered, and 2 g/kg of glucose was orally administered after 30 minutes of the administration. A blood glucose level was determined using an Accu-Chek Active Strip (Roche diagnostic Co.). In this case, the glucose level in blood collected via caudal venipuncture was measured at time points of −30, 0, 20, 40, 60, and 120 minutes after glucose administration. […]

[3] = tested on: male C57BL/6J (C57 black 6) rats in a high-fat diet model; test: Oral glucose tolerance test (OGTT), high-fat diet model; assay type: in vivo; conditions: 20 mg/kg oral, Table 3
Method: To evaluate in vivo effective effects of the cyclohexene derivatives according to the present invention, experiments were carried out, as follows.
Specifically, male C57BL/6J (C57 black 6) […] (8 to 10 weeks old) in a high-fat diet model were acclimated for at least 7 days, and only healthy rat populations were selected and subjected to an oral glucose tolerance test (OGTT). The rats were fasted for 12 to 15 hours, and then randomly divided into groups with five rats per group. Thereafter, each of the compounds of Examples 1, 14, 48, 69, 80, 118, 139, 147, 148, 169, 190, 199, 200, 204, 227, 277, 290, 291, 442, 443, and 461 to 466, and Comparative Examples 1 and 2 according to the present invention was administered to the rats at a dose of 20 mg/kg. In this case, a vehicle (0.5%, carboxymethyl cellulose (CMC)) was administered as an untreated group, and the dose of the compound administered together with the vehicle was orally administered at 10 ml/kg. After 30 minutes of administration, glucose (2 g/kg) was orally administered at a dose of 10 ml/kg. A blood glucose level was measured using an Accu-Chek Active Strip (Rosche Diagnostic Co.). In this case, the glucose level in blood collected via caudal venipuncture was measured at time points of −30, 0, 20, 40, 60, and 120 minutes after glucose administration. […]

[4] = target: T6, G protein-coupled receptor 119 (GPR-119) (Mesocricetus auratus, UniProt A0A1U8CD06); test: cAMP activity in HIT-T15 cells (cAMP dynamic kit, FRET); assay type: cell-based, hamster
T6 construct: hamster-derived β-cells containing G protein-coupled receptor 119 (GPR-119), HIT-T15 cells; host or cells: HIT-T15 (hamster pancreatic β-cells)
T6 sequence (A0A1U8CD06 1-334): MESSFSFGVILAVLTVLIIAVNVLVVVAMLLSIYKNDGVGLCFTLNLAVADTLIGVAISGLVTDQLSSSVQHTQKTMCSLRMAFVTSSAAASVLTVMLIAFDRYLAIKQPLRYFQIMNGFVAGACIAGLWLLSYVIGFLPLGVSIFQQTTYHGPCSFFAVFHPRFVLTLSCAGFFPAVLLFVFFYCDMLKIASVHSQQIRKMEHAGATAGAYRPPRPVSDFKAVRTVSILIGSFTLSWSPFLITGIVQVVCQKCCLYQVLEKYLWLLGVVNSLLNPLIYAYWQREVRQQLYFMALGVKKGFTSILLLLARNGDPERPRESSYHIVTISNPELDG
Summary of the method: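 Hamster HIT-T15 cells (60,000/well) were treated next day with compound at six concentrations, 0.0032–10 μM, for 1 h at 37° C. Cells were then lysed and cAMP measured by competitive HTRF immunoassay (D2-cAMP, cryptate anti-cAMP). Activity was derived as the change in FRET signal relative to DMSO.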

T3 sequence (P08684 whole entry): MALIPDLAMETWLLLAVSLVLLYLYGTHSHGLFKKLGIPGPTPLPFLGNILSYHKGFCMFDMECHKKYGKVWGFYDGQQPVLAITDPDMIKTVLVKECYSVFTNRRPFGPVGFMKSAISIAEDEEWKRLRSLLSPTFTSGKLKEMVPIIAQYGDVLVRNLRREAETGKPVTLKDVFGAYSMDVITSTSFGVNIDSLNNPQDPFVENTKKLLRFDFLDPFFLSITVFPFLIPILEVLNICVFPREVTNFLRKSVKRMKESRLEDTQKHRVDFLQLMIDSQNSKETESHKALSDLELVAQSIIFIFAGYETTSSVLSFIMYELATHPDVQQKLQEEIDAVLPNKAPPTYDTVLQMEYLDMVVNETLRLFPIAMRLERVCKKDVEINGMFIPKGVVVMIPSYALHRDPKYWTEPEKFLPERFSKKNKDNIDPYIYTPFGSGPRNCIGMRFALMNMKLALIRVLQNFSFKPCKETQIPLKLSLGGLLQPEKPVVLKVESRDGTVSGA
T1 sequence (P10635 whole entry): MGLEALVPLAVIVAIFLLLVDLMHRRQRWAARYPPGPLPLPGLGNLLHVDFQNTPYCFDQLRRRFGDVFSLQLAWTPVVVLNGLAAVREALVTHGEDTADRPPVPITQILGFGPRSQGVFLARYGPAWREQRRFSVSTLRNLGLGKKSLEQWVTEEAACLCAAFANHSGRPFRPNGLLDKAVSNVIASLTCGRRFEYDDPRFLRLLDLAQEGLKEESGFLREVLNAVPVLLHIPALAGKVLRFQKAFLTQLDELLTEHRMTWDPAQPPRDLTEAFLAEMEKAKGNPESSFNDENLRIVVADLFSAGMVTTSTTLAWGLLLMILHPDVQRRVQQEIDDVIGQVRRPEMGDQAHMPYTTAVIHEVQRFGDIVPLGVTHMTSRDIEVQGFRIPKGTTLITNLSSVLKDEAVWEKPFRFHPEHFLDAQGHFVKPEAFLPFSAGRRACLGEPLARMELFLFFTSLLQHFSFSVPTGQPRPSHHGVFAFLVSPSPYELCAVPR
T2 sequence (P11712 whole entry): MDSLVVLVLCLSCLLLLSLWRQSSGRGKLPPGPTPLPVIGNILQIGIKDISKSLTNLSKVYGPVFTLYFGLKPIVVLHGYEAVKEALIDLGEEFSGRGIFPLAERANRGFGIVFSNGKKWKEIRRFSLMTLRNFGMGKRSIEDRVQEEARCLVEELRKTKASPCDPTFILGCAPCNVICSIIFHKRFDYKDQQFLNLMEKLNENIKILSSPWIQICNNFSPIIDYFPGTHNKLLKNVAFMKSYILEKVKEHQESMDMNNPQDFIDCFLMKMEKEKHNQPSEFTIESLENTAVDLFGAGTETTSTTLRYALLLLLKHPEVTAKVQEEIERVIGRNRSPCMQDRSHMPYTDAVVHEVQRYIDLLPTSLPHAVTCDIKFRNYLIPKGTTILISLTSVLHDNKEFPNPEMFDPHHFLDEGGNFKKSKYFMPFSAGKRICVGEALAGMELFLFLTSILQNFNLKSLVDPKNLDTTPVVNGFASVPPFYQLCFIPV
T5 sequence (P33261 whole entry): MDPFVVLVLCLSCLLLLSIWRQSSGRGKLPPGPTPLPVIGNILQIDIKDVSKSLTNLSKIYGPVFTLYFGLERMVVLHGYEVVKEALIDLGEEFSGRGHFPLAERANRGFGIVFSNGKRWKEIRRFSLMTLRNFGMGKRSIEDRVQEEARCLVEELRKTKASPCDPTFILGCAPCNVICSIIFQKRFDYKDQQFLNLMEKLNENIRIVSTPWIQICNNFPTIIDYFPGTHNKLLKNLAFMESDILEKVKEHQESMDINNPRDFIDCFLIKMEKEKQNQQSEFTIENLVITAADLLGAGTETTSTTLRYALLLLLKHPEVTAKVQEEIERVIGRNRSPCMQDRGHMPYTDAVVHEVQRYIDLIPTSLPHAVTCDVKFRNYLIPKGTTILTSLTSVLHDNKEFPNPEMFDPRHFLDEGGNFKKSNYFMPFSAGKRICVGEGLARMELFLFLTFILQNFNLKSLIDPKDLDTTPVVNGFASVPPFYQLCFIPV

Row | inhibition at 1 h, 10 µM (CYP2D6) | inhibition at 1.5 h, 10 µM (CYP2C9) | inhibition at 30 min, 10 µM (CYP3A4) | inhibition at 15 min, 10 µM (CYP1A2) | inhibition at 30 min, 10 µM (CYP2C19) | Structure (SMILES) | hypoglycemic effect [3] | further results
1 | 9.42% | 29.8% | 48.2% | 0% | 48.4% | CCc1cnc(N2CCC(COc3ccc(C4=CCC(C(=O)N5CCC[C@@H]5CO)CC4)cc3)CC2)nc1 (stereo partly drawn) [Example 118, (4-(4-((1-(5-ethylpyrimidin-2-yl)piperidin-4-yl)methoxy)phenyl)cyclohex-3-enyl)((R)-2-(hydroxymethyl)pyrrolidin-1-yl)methanone] | – | –
2 | – | – | – | – | – | CN(C)C(=N)NC(=N)N [Comparative Example 3, Metformin] | – | changes in weights of rats (weight-loss effect) [1]: weight loss was observed for 2 weeks; also recorded: the weight rather increased after 2 weeks; hypoglycemic effect [2]: approximately 22%
3 | 9.84% | 24.1% | 47.8% | 10.4% | – | CC(C)c1noc(C2CCN(c3ncnc(Nc4ccc(S(C)(=O)=O)cc4F)c3[N+](=O)[O-])CC2)n1 [Comparative Example 1, N-(2-fluoro-4-methylsulfonylphenyl)-5-nitro-6-[4-(3-propan-2-yl-1,2,4-oxadiazol-5-yl)piperidin-1-yl]pyrimidine-4-amine, reference compound] | 13.5% | –
4 | – | – | – | – | – | CC(C)c1noc(N2CCC(COc3ccc(-c4ccc(S(C)(=O)=O)cc4)nc3)CC2)n1 [Comparative Example 2, 2-(4-methanesulfonylphenyl)-5-({1-[3-(propan-2-yl)-1,2,4-oxadiazol-5-yl]piperidin-4-yl}methoxy)pyridine] | 15.3% | –
5 | – | – | 33.1% | – | 44.9% | CCc1cnc(N2CCC(COc3ccc(C4=CCC(C(=O)N5CCC[C@@H]5CO)CC4)cc3)CC2)nc1 (single isomer, unassigned; (+)) [Example 290] | – | EC50 ([4]; 1 hour at 37° C., six concentrations 0.0032 to 10 μM, read-out: EC50): 3.8 nM; EC50 ([4]; Table 2, read-out: EC50 value): ≤ 50 nM; CYP inhibition (% at 10 μM) 2D6 (CYP2D6; 10 µM): 48.97%; CYP inhibition (% at 10 μM) 2C9 (CYP2C9; 10 μM): 23.97%; CYP inhibition (% at 10 μM) 1A2 (CYP1A2; 10 μM): 3.82%
